Reference: PubChem BioAssay AID256 (DTP/NCI, 2004)
“And” between values parts separate entries of the source, which are not always exact repeats. Equal values may be shown once. Inconclusive results and toxic doses are left out.

System: CD2F1 mice, L1210 leukemia ip, survival T/C
Assay: NCI In Vivo Anticancer Drug Screen. Data for tumor model L1210 Leukemia (intraperitoneal) in CD2F1 (CDF1) mice
Conditions: higher = longer survival
Summary of the method: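 Tumor-bearing mice (transplanted tumor) were split into treated and vehicle control groups, and the measured endpoint of each treated group was divided by that of its vehicle controls.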

[1] = endpoint: mean survival time, dose: 50.0 mg/kg/injection, schedule: Q01DX009 (ip), vehicle: saline with Tween-80
[2] = endpoint: mean survival time, dose: 100.0 mg/kg/injection, schedule: Q01DX009 (ip), vehicle: saline with Tween-80
[3] = endpoint: mean survival time, dose: 200.0 mg/kg/injection, schedule: Q01DX009 (ip), vehicle: saline with Tween-80

CC(=O)SCC1C(=O)n2c(cc3ccccc32)C(=O)N1C (stereo not drawn)
T/C (endpoint: mean survival time, dose: 50.0 mg/kg/injection, schedule: Q04DX002 (ip), vehicle: saline with Tween-80): 89 % of control
T/C (endpoint: mean survival time, dose: 100.0 mg/kg/injection, schedule: Q04DX002 (ip), vehicle: saline with Tween-80): 96 % of control
T/C (endpoint: mean survival time, dose: 200.0 mg/kg/injection, schedule: Q04DX002 (ip), vehicle: saline with Tween-80): 101 % of control

NCC(Br)CO (stereo not drawn)
T/C (endpoint: mean survival time, dose: 31.3 mg/kg/injection, schedule: Q01DX001 (ip), vehicle: other): 95 % of control
T/C (endpoint: mean survival time, dose: 62.5 mg/kg/injection, schedule: Q01DX001 (ip), vehicle: other): 95 % of control
T/C (endpoint: mean survival time, dose: 125.0 mg/kg/injection, schedule: Q01DX001 (ip), vehicle: other): 100 % of control
T/C (endpoint: mean survival time, dose: 250.0 mg/kg/injection, schedule: Q01DX001 (ip), vehicle: other): 101 % of control
T/C (endpoint: mean survival time, dose: 500.0 mg/kg/injection, schedule: Q01DX001 (ip), vehicle: other): 97 % of control

COc1ccc(/C=N/NC(=O)CNC(=O)Nc2cccc(C(F)(F)F)c2)cc1
T/C [1]: 92 % of control
T/C [2]: 88 % of control
T/C [3]: 92 % of control

CCCN(N=O)C(=O)Nc1ccc(C2CC(=O)N(C)C2=O)cc1 (stereo not drawn)
T/C (endpoint: mean survival time, dose: 12.5 mg/kg/injection, schedule: Q01DX001 (ip), vehicle: distilled water + Tween-80): 112 % of control
T/C (endpoint: mean survival time, dose: 25.0 mg/kg/injection, schedule: Q01DX001 (ip), vehicle: distilled water + Tween-80): 111 % of control
T/C (endpoint: mean survival time, dose: 50.0 mg/kg/injection, schedule: Q01DX001 (ip), vehicle: distilled water + Tween-80): 109 % of control
T/C (endpoint: mean survival time, dose: 100.0 mg/kg/injection, schedule: Q01DX001 (ip), vehicle: distilled water + Tween-80): 101 % of control
T/C (endpoint: mean survival time, dose: 200.0 mg/kg/injection, schedule: Q01DX001 (ip), vehicle: distilled water + Tween-80): 107 % of control

COc1nc(NC2OC(CO)C(O)C(O)C2O)c(Br)c(=O)n1C (stereo not drawn)
T/C (endpoint: median survival time, dose: 12.5 mg/kg/injection, schedule: Q01DX005 (ip), vehicle: saline with Tween-80): 101 % of control
T/C (endpoint: median survival time, dose: 25.0 mg/kg/injection, schedule: Q01DX005 (ip), vehicle: saline with Tween-80): 101 % of control
T/C (endpoint: median survival time, dose: 50.0 mg/kg/injection, schedule: Q01DX005 (ip), vehicle: saline with Tween-80): 100 % of control
T/C (endpoint: median survival time, dose: 100.0 mg/kg/injection, schedule: Q01DX005 (ip), vehicle: saline with Tween-80): 102 % of control
T/C (endpoint: median survival time, dose: 200.0 mg/kg/injection, schedule: Q01DX005 (ip), vehicle: saline with Tween-80): 96 % of control

O=C(CNC(=O)NCc1ccco1)NNC(=O)Nc1ccc(Cl)c([N+](=O)[O-])c1
T/C [2]: 94 % of control
T/C [3]: 87 % of control
T/C (endpoint: mean survival time, dose: 400.0 mg/kg/injection, schedule: Q01DX009 (ip), vehicle: saline with Tween-80): 91 % of control

O=C(OCc1ccccc1)C1CC1 (tested in a mixture with another compound)
T/C (endpoint: mean survival time, dose: 25.0 mg/kg/injection, schedule: Q01DX009 (ip), vehicle: saline with Tween-80): 86 % of control
T/C (endpoint: mean survival time, dose: 50.0 mg/kg/injection, schedule: Q01DX005 (ip), vehicle: saline with Tween-80): 101 % of control
T/C [1]: 96 % of control
T/C (endpoint: mean survival time, dose: 50.0 mg/kg/injection, schedule: Q04DX002 (ip), vehicle: saline): 102 % of control
T/C (endpoint: mean survival time, dose: 100.0 mg/kg/injection, schedule: Q01DX005 (ip), vehicle: saline with Tween-80): 93 % of control
T/C [2]: 86 % of control
T/C (endpoint: mean survival time, dose: 100.0 mg/kg/injection, schedule: Q04DX002 (ip), vehicle: saline): 97 % of control
T/C (endpoint: mean survival time, dose: 200.0 mg/kg/injection, schedule: Q01DX005 (ip), vehicle: saline with Tween-80): 97 % of control
T/C [3]: 86 % of control
T/C (endpoint: mean survival time, dose: 200.0 mg/kg/injection, schedule: Q04DX002 (ip), vehicle: saline): 105 % of control
T/C (endpoint: mean survival time, dose: 400.0 mg/kg/injection, schedule: Q04DX002 (ip), vehicle: saline): 97 % of control

O=C(O)c1cccc(C(=O)O)c1C(=O)O.[NH-]C1CCCCC1[NH-].[Pt+2]
T/C (endpoint: median survival time, dose: 3.12 mg/kg/injection, schedule: Q04DX003 (ip), vehicle: saline): 102 % of control and 109 % of control
T/C (endpoint: median survival time, dose: 6.25 mg/kg/injection, schedule: Q04DX003 (ip), vehicle: saline): 114 % of control and 103 % of control
T/C (endpoint: median survival time, dose: 12.5 mg/kg/injection, schedule: Q04DX003 (ip), vehicle: saline): 115 % of control and 108 % of control
T/C (endpoint: median survival time, dose: 25.0 mg/kg/injection, schedule: Q04DX003 (ip), vehicle: saline): 117 % of control
T/C (endpoint: median survival time, dose: 50.0 mg/kg/injection, schedule: Q04DX003 (ip), vehicle: saline): 152 % of control
T/C (endpoint: median survival time, dose: 100.0 mg/kg/injection, schedule: Q04DX003 (ip), vehicle: saline): 178 % of control and 197 % of control
T/C (endpoint: median survival time, dose: 200.0 mg/kg/injection, schedule: Q04DX003 (ip), vehicle: saline): 282 % of control and 375 % of control

COc1ccc2[nH]c(=O)c3c(c2c1)CCC(OC(=O)c1ccccc1)C3 (stereo not drawn)
T/C (endpoint: mean survival time, dose: 12.5 mg/kg/injection, schedule: Q01DX009 (ip), vehicle: saline): 104 % of control
T/C (endpoint: mean survival time, dose: 18.8 mg/kg/injection, schedule: Q04DX003 (ip), vehicle: saline): 104 % of control
T/C (endpoint: mean survival time, dose: 25.0 mg/kg/injection, schedule: Q01DX009 (ip), vehicle: saline): 97 % of control
T/C (endpoint: mean survival time, dose: 37.5 mg/kg/injection, schedule: Q04DX003 (ip), vehicle: saline): 101 % of control
T/C (endpoint: mean survival time, dose: 50.0 mg/kg/injection, schedule: Q01DX009 (ip), vehicle: saline): 98 % of control
T/C (endpoint: mean survival time, dose: 75.0 mg/kg/injection, schedule: Q04DX003 (ip), vehicle: saline): 97 % of control
